Data on 29 compounds can be found in patent US12448388B2, “PRMT5 inhibitors and uses thereof” (Gilead Sciences, Inc., priority 2023, dated 2025).

Read-outs that look alike come from different tables or passages of the source. Where only a bound is given, the exact number is not on record here.

This test has as its system HCT116 MTAP-deleted cell lines. The test is described as follows: Cell viability assay (CellTiter-Glo, 7 days), HCT116 MTAP-deleted. The class given is cell-based. As to conditions: Homo sapiens, HCT-116. The procedure, abridged: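 Each PRMT5 inhibitor was tested as a dose response alongside tool compounds on the same plate. Incubation ran 7 days at 37 °C under 5% CO2, after which CellTiter-Glo luminescence was recorded and CC50 calculated.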

[1] abbreviates: cell viability, HCT116 MTAP-deleted, class symbols, read-out: CC50.
Setting [2] is: cell viability assay, HCT116 MTAP-deleted, class symbols, read-out: CC50.

Turning to `Nc1nc2cc(F)c(C(=O)N(Cc3ccc(C(F)(F)F)cc3F)c3cnn(C(F)F)c3)cc2n2cncc12` [Ff-291, 4-amino-N-(1-(difluoromethyl)-1H-pyrazol-4-yl)-7-fluoro-N-(2-fluoro-4-(trifluoromethyl)benzyl)imidazo[1,5-a]quinoxaline-8-carboxamide], under setting [1], the CC50 is less than 100 nM.

As to `CN(C(=O)c1cc2c(cc1F)nc(N)c1cncn12)C1COc2cc3ccccc3cc21` (centres unmarked) [Ff-600, 4-amino-N-(2,3-dihydronaphtho[2,3-b]furan-3-yl)-7-fluoro-N-methylimidazo[1,5-a]quinoxaline-8-carboxamide], the CC50 under setting [2] is less than 100 nM.

In the case of `Cc1ncc2c(N)nc3cnc(C(=O)N4CCC[C@@H]5Oc6c(ccc(OC(F)(F)F)c6F)[C@@H]54)cc3n12` [Ff-347, (4-amino-1-methylimidazo[1,5-a]pyrido[3,4-e]pyrazin-8-yl)((4aS,9bS)-6-fluoro-7-(trifluoromethoxy)-3,4,4a,9b-tetrahydrobenzofuro[3,2-b]pyridin-1(2H)-yl)methanone], the CC50 under setting [1] is less than 100 nM.

`Nc1nc2ccc(C(=O)N3CCC[C@@H]4Oc5cc(OC(F)(F)F)c(F)cc5[C@@H]43)cc2n2cncc12` (racemic) [Ff-339, Rac-(4-aminoimidazo[1,5-a]quinoxalin-8-yl)((4aS,9bS)-8-fluoro-7-(trifluoromethoxy)-3,4,4a,9b-tetrahydrobenzofuro[3,2-b]pyridin-1(2H)-yl)methanone]: the CC50 under setting [1] is less than 100 nM.

Regarding `CN(C(=O)c1cc2c(cc1F)nc(N)c1cncn12)[C@@H]1CCc2cc([C@@H]3C[C@H]3C#N)ccc21` [Ff-434, Trans-4-amino-N-[(1R)-5-(2-cyanocyclopropyl)indan-1-yl]-7-fluoro-N-methyl-imidazo[1,5-a]quinoxaline-8-carboxamide], under setting [2], the CC50 is less than 100 nM.

Take `Nc1nc2cc(F)c(C(=O)N3CC4(CC[C@@H]3c3ccc(C(F)(F)F)cc3)CC4)cc2n2cncc12` (single isomer, unassigned) [Ff-154]: the CC50 was less than 100 nM.

For the compound `Nc1nc2cc(F)c(C(=O)N(Cc3ccc(C(F)(F)F)cc3F)C34COC(C3)C4)cc2n2cncc12` [Ff-272, 4-amino-N-(2-oxabicyclo[2.1.1]hexan-4-yl)-7-fluoro-N-(2-fluoro-4-(trifluoromethyl)benzyl)imidazo[1,5-a]quinoxaline-8-carboxamide], the CC50 under setting [1] is less than 100 nM.

In the case of `C[C@@H]1C[C@@H]2Oc3c(ccc(C(F)(F)F)c3F)[C@@H]2N(C(=O)c2cc3c(cn2)nc(N)c2cncn23)C1` [Ff-348, (4-aminoimidazo[1,5-a]pyrido[3,4-e]pyrazin-8-yl)((3R,4aS,9bS)-6-fluoro-3-methyl-7-(trifluoromethyl)-3,4,4a,9b-tetrahydrobenzofuro[3,2-b]pyridin-1(2H)-yl)methanone], the CC50 under setting [1] is less than 100 nM.

As to `Cc1ncn2c1c(N)nc1cnc(C(=O)N3CCC[C@@H]4Oc5cc(-c6cnn(C(F)(F)F)c6)ccc5[C@@H]43)cc12` [Ff-683, (4-amino-3-methylimidazo[1,5-a]pyrido[3,4-e]pyrazin-8-yl)((4aS,9bS)-7-(1-(trifluoromethyl)-1H-pyrazol-4-yl)-3,4,4a,9b-tetrahydrobenzofuro[3,2-b]pyridin-1(2H)-yl)methanone], under setting [2], the CC50 is less than 100 nM.

Turning to `COC[C@H](c1ccc(C(F)(F)F)cc1)N(C)C(=O)c1cc2c(cc1F)nc(N)c1cncn12` [Ff-431, 4-amino-7-fluoro-N-[(1S)-2-methoxy-1-[4-(trifluoromethyl)phenyl]ethyl]-N-methyl-imidazo[1,5-a]quinoxaline-8-carboxamide], the CC50 under setting [2] lay within 100 to 1000 nM.

`Cc1ncn2c1c(N)nc1cnc(C(=O)N(C)[C@@H]3COc4cc(C56CC(C5)C6)ccc43)cc12` [Ff-452, (S)-4-amino-N-(6-(bicyclo[1.1.1]pentan-1-yl)-2,3-dihydrobenzofuran-3-yl)-N,3-dimethylimidazo[1,5-a]pyrido[3,4-e]pyrazine-8-carboxamide]: under setting [2], the CC50 is less than 100 nM.

On to `CN(Cc1ccc2c(c1)OC(F)(F)O2)C(=O)c1cc2c(cc1F)nc(N)c1cncn12` [Ff-124, 4-amino-N-((2,2-difluorobenzo[d][1,3]dioxol-5-yl)methyl)-7-fluoro-N-methylimidazo[1,5-a]quinoxaline-8-carboxamide], for which, under setting [1], the CC50 was 100 to 1000 nM.

As for `Nc1nc2cnc(C(=O)N3CCC4(CC4)[C@@H]4Oc5cc(C(F)(F)F)ccc5[C@@H]43)cc2n2cncc12` [Ff-677, (4-aminoimidazo[1,5-a]pyrido[3,4-e]pyrazin-8-yl)((4aS,9bS)-7-(trifluoromethyl)-2,3,4a,9b-tetrahydro-1H-spiro[benzofuro[3,2-b]pyridine-4,1′-cyclopropan]-1-yl)methanone], the CC50 under setting [2] was less than 100 nM.

On to `COc1cc(C(F)(F)F)ccc1[C@@H](C)N(C)C(=O)c1cc2c(cc1F)nc(N)c1cncn12` [Ff-535, (R)-4-amino-7-fluoro-N-(1-(2-methoxy-4-(trifluoromethyl)phenyl)ethyl)-N-methylimidazo[1,5-a]quinoxaline-8-carboxamide], for which the CC50 under setting [2] lay within 100 to 1000 nM.

Regarding `CN(C(=O)c1cc2c(cc1F)nc(N)c1cncn12)[C@@H]1COc2ccc(Br)cc21` [Ff-457, (S)-4-amino-N-(5-bromo-2,3-dihydrobenzofuran-3-yl)-7-fluoro-N-methylimidazo[1,5-a]quinoxaline-8-carboxamide], the half-maximal cytotoxic concentration (CC50) under setting [2] is less than 100 nM.

In the case of `Nc1nc2cc(F)c(C(=O)N(Cc3ccc(C(F)(F)F)cn3)c3cnn(-c4ccccc4)c3)cc2n2cncc12` [Ff-315, 4-amino-7-fluoro-N-(1-phenyl-1H-pyrazol-4-yl)-N-((5-(trifluoromethyl)pyridin-2-yl)methyl)imidazo[1,5-a]quinoxaline-8-carboxamide], under setting [1], the 50% cytotoxic concentration (CC50) is less than 100 nM.

With `Nc1nc2cc(F)c(C(=O)N3CC(F)(F)CCC3c3ccc(C(F)(F)F)cn3)cc2n2cncc12` (centres unmarked) [Ff-222, (4-amino-7-fluoroimidazo[1,5-a]quinoxalin-8-yl)(5,5-difluoro-2-(5-(trifluoromethyl)pyridin-2-yl)piperidin-1-yl)methanone], the CC50 under setting [1] was less than 100 nM.

In the case of `CC1(N(Cc2ccc(C(F)(F)F)cn2)C(=O)c2cc3c(cc2F)nc(N)c2cncn23)CC1` [Ff-468, 4-amino-7-fluoro-N-(1-methylcyclopropyl)-N-((5-(trifluoromethyl)pyridin-2-yl)methyl)imidazo[1,5-a]quinoxaline-8-carboxamide], the CC50 under setting [2] is less than 100 nM.

Take `CN(C(=O)c1cc2c(cn1)nc(N)c1cncn12)C1CCc2cc(C(F)(F)F)ccc21` (centres unmarked) [Ff-436, 7-amino-N-methyl-N-[5-(trifluoromethyl)indan-1-yl]-2,4,8,11-tetrazatricyclo[7.4.0.02,6]trideca-1(13),3,5,7,9,11-hexaene-12-carboxamide]: the CC50 under setting [2] was less than 100 nM.

For `COc1cc(C(F)(F)F)ccc1[C@H](C)N(C)C(=O)c1cc2c(cc1F)nc(N)c1cncn12` [Ff-536, (S)-4-amino-7-fluoro-N-(1-(2-methoxy-4-(trifluoromethyl)phenyl)ethyl)-N-methylimidazo[1,5-a]quinoxaline-8-carboxamide], the cytotoxic concentration (CC50) under setting [2] lay in the range of 100 to 1000 nM.

For the compound `CN(C(=O)c1cc2c(cc1F)nc(N)c1cncn12)[C@@H]1COc2cc(C#CC34CCC(CC3)OC4)ccc21` [Ff-523, (S)—N-(6-((2-oxabicyclo[2.2.2]octan-4-yl)ethynyl)-2,3-dihydrobenzofuran-3-yl)-4-amino-7-fluoro-N-methylimidazo[1,5-a]quinoxaline-8-carboxamide], the CC50 under setting [2] lay within 100 to 1000 nM.

Regarding `C[C@@H]1CN(C(=O)c2cc3c(cc2F)nc(N)c2cncn23)[C@@H](c2cccc(C(F)F)n2)CO1` (single isomer, unassigned) [Ff-668], under setting [2], the CC50 lay in the range of 100 to 1000 nM.

Regarding `CN(C(=O)c1ccc2nc(N)c3cncn3c2c1)[C@@H]1COc2cc(C#CC34CCC(CC3)O4)ccc21` [Ff-528, (S)—N-(6-((7-oxabicyclo[2.2.1]heptan-1-yl)ethynyl)-2,3-dihydrobenzofuran-3-yl)-4-amino-N-methylimidazo[1,5-a]quinoxaline-8-carboxamide], the CC50 under setting [2] is 100 to 1000 nM.

For the compound `CN(C(=O)c1cc2c(cn1)nc(N)c1cncn12)[C@@H](c1ccc(C(F)(F)F)cc1Cl)C(F)F` [Ff-571, (S)-4-amino-N-(1-(2-chloro-4-(trifluoromethyl)phenyl)-2,2-difluoroethyl)-N-methylimidazo[1,5-a]pyrido[3,4-e]pyrazine-8-carboxamide], the CC50 under setting [2] is 100 to 1000 nM.

Consider `CN(C(=O)c1ccc2nc(N)c3cncn3c2c1)[C@@H](c1ccc(C(F)(F)F)cc1Cl)C(F)F` [Ff-570, (S)-4-amino-N-(1-(2-chloro-4-(trifluoromethyl)phenyl)-2,2-difluoroethyl)-N-methylimidazo[1,5-a]quinoxaline-8-carboxamide], for which the CC50 under setting [2] fell in the range of 100 to 1000 nM.

For the compound `C[C@H]1CN(C(=O)c2cc3c(cc2F)nc(N)c2cncn23)[C@H]2Cc3ccccc3[C@H]2O1` (single isomer, unassigned) [Ff-623], under setting [2], the half-maximal cytotoxic concentration (CC50) fell in the range of 100 to 1000 nM.

Consider `CCN(C(=O)c1cc2c(cn1)nc(N)c1c(C)ncn12)[C@@H]1COc2cc(C(F)(F)F)ccc21` [Ff-610, (S)-4-amino-N-ethyl-3-methyl-N-(6-(trifluoromethyl)-2,3-dihydrobenzofuran-3-yl)imidazo[1,5-a]pyrido[3,4-e]pyrazine-8-carboxamide], for which the half-maximal cytotoxic concentration (CC50) under setting [2] is less than 100 nM.

Take `Nc1nc2cc(F)c(C(=O)N3[C@@H](c4ccc(C(F)(F)F)cn4)CC[C@@H]4C[C@@H]43)cc2n2cncc12` (racemic) [Ff-293, Rac-(4-amino-7-fluoroimidazo[1,5-a]quinoxalin-8-yl)((1S,3R,6R)-3-(5-(trifluoromethyl)pyridin-2-yl)-2-azabicyclo[4.1.0]heptan-2-yl)methanone]: the cytotoxic concentration (CC50) under setting [1] lay in the range of 100 to 1000 nM.

Consider `Nc1nc2ccc(C(=O)N3CCC[C@@H]4Oc5c(ccc(OC(F)(F)F)c5F)[C@@H]43)cc2n2cncc12` [Ff-381, (4-aminoimidazo[1,5-a]quinoxalin-8-yl)((4aS,9bS)-6-fluoro-7-(trifluoromethoxy)-3,4,4a,9b-tetrahydrobenzofuro[3,2-b]pyridin-1(2H)-yl)methanone], for which the CC50 under setting [2] is less than 100 nM.
